In patent US11970490B2, “Stable heavy isotopes in amide functional groups and uses thereof” (RISEN (SUZHOU) PHARMA TECH CO., LTD., priority 2020, dated 2024):

Legend:
[1] = Pharmacokinetic studies in ICR mice, oral gavage, plasma; assay type: in vivo; conditions: 2.5 mg/kg; for AUC(0-inf) / AUC(0-t) / Cmax / Tmax / Vd/F: mouse; for AUC(0-inf) / AUC(0-t) / Cmax / Tmax / Vd/F / CLz/F: oral gavage, 1:1 molar mix, plasma; for Vd/F: read-out: Vz/F
Procedure: ICR mice, 48, in 6 groups (n=8), were grouped randomly. Compound 1 (Alpelisib-^18O1) and Alpelisib were mixed and adjusted to 1:1 molar ratio in dosing solution (1.25 mg/mL); and the dosing solution was administered to the animals, via oral gavage, at a dose level of 2.5 mg/kg. Blood samples were collected (a group of 8 animals for each time point) at time points, after dosing, at 0.5, 1, 2, 4, 8, and 12 h. The blood samples were converted to plasma samples using standard techniques, and the latter samples were analyzed to determine the concentrations of Compound 1 and Alpelisib. In FIG. 2, lines labelled with -o- and -Δ-represent the plasma concentrations of Alpelisib-^18O1 and Alpelisib, respectively, following oral administration of the same dose of Alpelisib-^18O1 and Alpelisib to the animals.

[2] = M4 and M4-18O1 production in mini pig liver S9; assay type: in vitro ADME; conditions: mini pig liver S9, 37° C., β-NADPH, 0-240 min, equal molar co-incubation
Procedure: (§1) Stock solution (50 μL) containing equal molar concentration of Alpelisib and Alpelisib-^18O1 was diluted with pre-warmed (37° C., water bath) 0.1 M Tris-Acetate buffer; and the concentration of each compound in this working solution was 4.5 μM. In each incubation well were added the above working solution (50 μL) and a liver S9 solution (50 μL), mixed well. The sample was pre-incubated for 5 min, following by addition, to each well, of β-NADPH dosing solution (100 μL). The sample plate was incubated at 37° C., and analyzed at time points of 0, 15, 30, 60, and 240 min., in triplicates. Sample analysis: at a pre-set time-point, a stop solution (800 μL, acetonitrile) was added to each well; the sample was well-mixed (Vortex), and centrifuged at 12000 rpm for 5 minutes; the supernatant was transferred to analytical sample vial, and then analyzed with LC-MS/MS, for M4 and M4-^18O1. […] Liver S9 used in the experiment: (a) monkey liver S9, (b) pooled human S9, (c) mini pig liver S9, and (d) male Wistar rat Liver S9.

[3] = Pharmacokinetic studies in beagle dogs, single oral dose, co-administered; assay type: in vivo; conditions: for Cmax / Tmax / half-life / AUC(0-t) / Vd/F: both sexes, dog, plasma; for Cmax / Tmax / half-life / AUC(0-t) / Vd/F / CLz/F: single oral dose 2.5 mg/kg each; for Cmax / Tmax / half-life / Vd/F / CLz/F: co-administered; for AUC(0-t): co-administered (total 5 mg/kg); for Vd/F: read-out: Vz/F
Procedure: Male and female beagle dogs (n=4; 2 males and 2 females) were used in the study. A single oral dose of Alpelisib (2.5 mg/kg) and Compound 1 (^18O1-Alpelisib) (2.5 mg/kg) were co-administered (at a total dose of 5 mg/kg) in DMSO and 0.5% carboxymethyl cellulose sodium (CMC-Na) aqueous solution (5:95, v/v). Blood samples were collected for analysis of Alpelisib and ^18O1-Alpelisib at 0.25, 0.5, 1, 1.5, 2, 3, 4, 6, 8, 10, 12 and 24 h. In FIG. 4, lines labelled with -o- and -Δ- represent the plasma concentrations of Alpelisib-^18O1 and Alpelisib, respectively, following oral administration of the same dose of Alpelisib-^18O1 and Alpelisib to the animals.

[4] = M4 and M4-18O1 production in male Wistar rat liver S9; assay type: in vitro ADME; conditions: male Wistar rat liver S9, 37° C., β-NADPH, 0-240 min, equal molar co-incubation
Procedure: as §1

[5] = M4 and M4-18O1 production in monkey liver S9; assay type: in vitro ADME; conditions: monkey liver S9, 37° C., β-NADPH, 0-240 min, equal molar co-incubation
Procedure: as §1

[6] = Pharmacokinetic studies in Sprague Dawley (SD) rats, oral gavage, plasma; assay type: in vivo; conditions: for AUC(0-t) / AUC(0-inf) / Cmax / Tmax / Vd/F: Sprague-Dawley, rat; for AUC(0-t) / AUC(0-inf) / Cmax / Tmax / Vd/F / plasma concentration at 24-h timepoint / CLz/F: oral gavage; for AUC(0-t) / AUC(0-inf) / Cmax / Tmax / Vd/F / CLz/F: plasma; for Vd/F: read-out: Vz/F; for plasma concentration at 24-h timepoint: 0.322 mg/kg
Procedure: (a) SD rats, six in a group (n=6), were grouped randomly. Compound 1 (Alpelisib-^18O1) and Alpelisib were mixed and adjusted to 1:1 molar ratio in dosing solution (1.25 mg/mL); and the dosing solution was administered to the animals, via oral gavage, at a dose level of 2.5 mg/kg. Blood samples were collected at pre-set time points following drug administration, at 0.167, 0.5, 1, 2, 3, 4, 6, 8, and 24 hours (h). The blood samples were converted to plasma samples using standard techniques, and the latter samples were analyzed to determine the concentrations of Compound 1 and Alpelisib. In FIG. 1a, lines labelled with -o- and -Δ-represent the plasma concentrations of Alpelisib-^18O1 and Alpelisib, respectively, following oral administration of the same molar dose of Alpelisib-^18O1 and Alpelisib to the animals.
(b) Similarly, Compound 1 (Alpelisib-^18O1) and Alpelisib were administered to the animals (SD rats, n=4), via oral gavage, at a low dose (dose level of 0.322 mg/kg). Blood samples were collected at pre-set time points following drug administration, at 0.167, 0.5, 1, 2, 4, 6, 8, 10 and 24 hours (h). The blood samples were converted to plasma samples using standard techniques, and the latter samples were analyzed to determine the concentrations of Compound 1 and Alpelisib. […] In FIG. 1b, solid line and dashed line represent the plasma concentrations of Alpelisib-^18O1 and Alpelisib, respectively.

[7] = M4 and M4-18O1 production in pooled human S9; assay type: in vitro ADME; conditions: pooled human S9, 37° C., β-NADPH, 0-240 min, equal molar co-incubation
Procedure: as §1

[8] = James, A. et al., 2015; cited from earlier work
[9] = dose 2.5 mg/kg, 1:1 molar mix of Compound 1 and Alpelisib

Row | AUC(0-inf) [1] [ng·h/mL] | AUC(0-t) [1] [ng·h/mL] | Cmax [1] [ng/mL] | Tmax [1] [h] | Vd/F [1] [L/kg] | CLz/F [1] [mL/min/kg] | Cmax [3] [ng/mL] | Tmax [3] [h] | half-life [3] [h] | AUC(0-t) [3] [ng·h/mL] | Vd/F [3] [L/kg] | CLz/F [3] [mL/min/kg] | AUC(0-t) [6, 9] [ng·h/mL] | AUC(0-inf) ([6]; dose 2.5 mg/kg, 1:1 molar mix) [ng·h/mL] | Cmax ([6]; dose 2.5 mg/kg, 1:1 molar mix) [ng/mL] | Tmax ([6]; dose 2.5 mg/kg, 1:1 molar mix) [h] | Vd/F ([6]; dose 2.5 mg/kg, 1:1 molar mix) [L/kg] | AUC(0-inf) ([6]; low dose 0.322 mg/kg) [ng·h/mL] | AUC(0-t) ([6]; low dose 0.322 mg/kg) [ng·h/mL] | Cmax ([6]; low dose 0.322 mg/kg) [ng/mL] | Compound | also measured
1 | 32600 | 27800 | 4520 | 2 | 2.24 | 6.4 | 1470 | 1.1 | 4.5 | 6680 | 2.4 | 6.33 | 28700 | 28800 | 2390 | 3 | 1.66 | 132 | 118 | 32.6 | Cc1nc(NC(=O)N2CCC[C@H]2C(N)=[18O])sc1-c1ccnc(C(C)(C)C(F)(F)F)c1 [Compound 1, N-(4-methyl-5-(2-(2,2,2-trifluoro-1,1-dimethylethyl)-4-pyridinyl)-2-thiazolyl)aminocarbonyl-L-prolin-^18O-amide] | plasma concentration compared with Alpelisib ([1]; oral): higher; metabolism compared to Alpelisib (M4-18O1 versus M4 production) [2]: reduced; plasma concentration compared with Alpelisib ([3]; oral, 2.5 mg/kg each): higher; metabolism compared to Alpelisib (M4-18O1 versus M4 production) [4]: reduced; metabolism compared to Alpelisib (M4-18O1 versus M4 production) [5]: reduced; Tmax ([6]; low dose 0.322 mg/kg): 0.875 h; Vd/F ([6]; low dose 0.322 mg/kg): 11.4 L/kg; plasma concentration at 24-h timepoint [6]: below the limit of quantification; CLz/F ([6]; dose 2.5 mg/kg, 1:1 molar mix): 7.23 mL/min/kg; CLz/F ([6]; low dose 0.322 mg/kg): 41.7 mL/min/kg; plasma concentration compared with Alpelisib ([6]; oral, both doses tested (2.5 and 0.322 mg/kg), greatest effect at low dose): higher; metabolism compared to Alpelisib (M4-18O1 versus M4 production) [7]: reduced
2 | – | – | – | – | – | – | – | – | – | – | – | – | – | – | – | – | – | – | – | – | Cc1nc(NC(=O)N2CCC[C@H]2C(=O)O)sc1-c1ccnc(C(C)(C)C(F)(F)F)c1 [Compound M4] | biological activity of the acid metabolite [8]: biologically inactive
3 | 30600 | 26200 | 4210 | 2 | 2.37 | 6.82 | 931 | 1.2 | 5.4 | 6120 | 3 | 6.83 | 26400 | 26500 | 2300 | 3 | 1.8 | 80.3 | 75.2 | 28.1 | Cc1nc(NC(=O)N2CCC[C@H]2C(N)=O)sc1-c1ccnc(C(C)(C)C(F)(F)F)c1 [Alpelisib, N-(4-methyl-5-(2-(2,2,2-trifluoro-1,1-dimethylethyl)-4-pyridinyl)-2-thiazolyl)aminocarbonyl-L-prolinamide, reference compound] | Tmax ([6]; low dose 0.322 mg/kg): 0.625 h; Vd/F ([6]; low dose 0.322 mg/kg): 13.1 L/kg; plasma concentration at 24-h timepoint [6]: below the limit of quantification; CLz/F ([6]; dose 2.5 mg/kg, 1:1 molar mix): 7.87 mL/min/kg; CLz/F ([6]; low dose 0.322 mg/kg): 68.3 mL/min/kg
